Measurements published in US9611457B2, “Triazine derivatives as differentiation catalysts” (TECHNISCHE UNIVERSITAET WIEN, priority 2011, dated 2017).

What was measured:
[1] = test system: Atrial natriuretic factor (ANF) expression, C2C12 cells; assay: ANF test (ANF promoter luciferase reporter) in C2C12 cells; assay type: cell-based, murine; design: key to Evaluation (luminescence in relation to the blank): −: decrease of luminescence compared to the blank value; +: measurable increase; ++: at least 1.5-fold increase; +++: at least 2-fold increase; settings: for Evaluation (luminescence in relation to the blank): C2C12 cells (*), compound 1 μM in DMSO, relative to DMSO blank
Excerpt: (§1) Atrial natriuretic factor (ANF) or atrial natriuretic peptide (ANP) is a cyclic peptide hormone made up of 28 amino acids, which is predominantly emitted by the muscle cells (myocytes) of the atrium of the heart. It is stored in the atrium as a pro-hormone made of 126 amino acids and is cleaved by serine protease corine into an N-terminal part and the biologically active ANF, which is often used as a cardiac-specific marker protein. In cell differentiation measurements, i.e. in determining the extent to which certain cells have become “cardiac cell-like” by differentiation, often a reporter gene located downstream of the ANF gene is used, as it expression product is easier to detect than the concentration of ANF in a cellular culture, for example, a luciferase gene. Luciferase in an enzyme which catalyzes the oxidation of a luminescent substrate (luciferine). While that happens, light is emitted, and the intensity of that light is correlated with the expression level of ANF and can therefore serve as a measure of ANF expression.
(§2) Initial attempts of ANF expression screenings were performed with P19 cells, i.e. murine embryonal carcinoma cells obtained from the ATCC, or C2C12 cells, i.e. a murine myoblast cell line, as models. In preparation, a plasmid was first constructed by amplifying a gene fragment containing a rat ANF promoter region and subcloning it into the PCL3-BV luciferase reporter plasmid of Promega. The P19 cells were temporarily transfected with said plasmid and cultured in Modified Eagle's Medium alpha (MEM-α) with 7.5% neonatal calf serum and 2.5% fetal bovine serum at 37° C. under 5% CO2 in monolayers for 8 days, during which the medium was exchanged three times. The respective compounds were added at about 60% confluence in DMSO as solvents at a concentration of 1 μM or DMSO alone (as a blank). The luminescence of the samples was measured with a Perkin Elmer Victor V 1420 Multilabel Counter. Their increase or decrease in the presence of the compounds of formula (I) is given in Table 1 below in relation to the blank.
(§3) The evaluations have the following meanings: • − decrease of luminescence compared to the blank value; • + measurable increase; • ++ at least 1.5-fold increase; • +++ at least 2-fold increase; • * represents C2C12 cells; and • ** represents P19 cells.

[2] = test system: Atrial natriuretic factor (ANF) expression, P19 cells; assay: ANF test (ANF promoter luciferase reporter) in P19 cells; assay type: cell-based, murine; design: key to Evaluation (luminescence in relation to the blank): −: decrease of luminescence compared to the blank value; +: measurable increase; ++: at least 1.5-fold increase; +++: at least 2-fold increase; settings: for fold induction at 1 µM: Mus musculus, 192 h, read-out: Evaluation (luminescence in relation to the blank); for fold induction at 1 µM / Evaluation (luminescence in relation to the blank): P19 cells (**), compound 1 μM in DMSO, 8 days culture, relative to DMSO blank
Excerpt: as §1, §2, §3

zebrafish embryos = settings: literature (Peterson et al.); cited from earlier work

Row | melting point | Compound | fold induction at 1 µM [2] | Evaluation (luminescence in relation to the blank) [2] | further results
1 | 155 to 159 °C | COc1ccc(Nc2nc(Cl)nc(NCCCO)n2)cc1 [(2), 3-[4-chloro-6-(4-methoxyphenylamino)-1,3,5-triazin-2-ylamino]propan-1-ol] |  |  | Evaluation (luminescence in relation to the blank) [1]: ++* (at least 1.5-fold increase); efficiency in ANF test, stated in words ([1]; C2C12 cells, 1 μM): very good efficiency
2 | 227 to 230 °C | O=C(O)c1cccc(Nc2nc(Oc3ccccc3)nc(Oc3cccc(Cl)c3)n2)c1 [(30), 3-{[4-(3-chlorophenoxy)-6-phenoxy-1,3,5-triazin-2-yl]amino}benzoic acid] | ≥ 1.5 |  | 
3 | 249.5 to 251.5 °C | O=C(O)c1cccc(Nc2nc(Oc3ccccc3)nc(Oc3ccccc3Cl)n2)c1 [(31), 3-{[4-(2-chlorophenoxy)-6-phenoxy-1,3,5-triazin-2-yl]amino}benzoic acid] | ≥ 1.5 |  | 
4 | 245 to 247 °C | CC(C)(C)c1ccc(Oc2nc(Nc3cccc(C(=O)O)c3)nc(Oc3ccccc3)n2)cc1 [(32), 3-{[4-(4-t-butylphenoxy)-6-phenoxy-1,3,5-triazin-2-yl]amino}benzoic acid] |  | +** | 
5 | 233 to 236.5 °C | COc1ccc(Oc2nc(Nc3cccc(C(=O)O)c3)nc(Oc3ccccc3)n2)cc1 [(33), 3-{[4-(4-methoxyphenoxy)-6-phenoxy-1,3,5-triazin-2-yl]amino}benzoic acid] |  | +** | 
6 | 150 °C | N#Cc1ccc(Oc2nc(Nc3cccc(C(=O)O)c3)nc(Oc3ccccc3)n2)cc1 [(34), 3-{[4-(4-cyanophenoxy)-6-phenoxy-1,3,5-triazin-2-yl]amino}benzoic acid] |  | +** | 
7 | 225 to 228 °C | O=C(O)c1cccc(Nc2nc(Oc3ccccc3)nc(Oc3cccc([N+](=O)[O-])c3)n2)c1 [(35), 3-{[4-(3-nitrophenoxy)-6-phenoxy-1,3,5-triazin-2-yl]amino}benzoic acid] | ≥ 1.5 |  | 
8 | 217.5 to 220 °C | COc1cc(C=O)ccc1Oc1nc(Nc2cccc(C(=O)O)c2)nc(Oc2ccccc2)n1 [(36), 3-{[4-(4-formyl-2-methoxyphenoxy)-6-phenoxy-1,3,5-triazin-2-yl]-amino}benzoic acid] | ≥ 2 |  | increased ANF expression (peak value) ([2]; P19 cells, 1 μM, relative to blank): more than threefold
9 | 240.5 to 242.5 °C | COc1ccc(Oc2nc(Nc3cccc(C(=O)O)c3)nc(Oc3ccc(C#N)cc3)n2)cc1 [(38), 3-{[4-(4-cyanophenoxy)-6-(4-methoxyphenoxy)-1,3,5-triazin-2-yl]-amino}benzoic acid] | ≥ 1.5 |  | 
10 | 152.5 to 154 °C | OCc1ccc(Nc2nc(Oc3ccccc3)nc(Oc3ccccc3)n2)cc1 [(39), {4-[(4,6-diphenoxy-1,3,5-triazin-2-yl)amino]phenyl}methanol] | ≥ 2 |  | 
11 | 49 to 52 °C | OCc1cccc(Nc2nc(Oc3ccccc3)nc(Oc3ccccc3)n2)c1 [(40), {3-[(4,6-diphenoxy-1,3,5-triazin-2-yl)amino]phenyl}methanol] |  | +** | 
12 | 110.5 to 114 °C | OCc1cccc(Nc2nc(Oc3ccccc3)nc(Oc3ccc(Cl)cc3)n2)c1 [(41), {3-[(4-(4-chlorophenoxy)-6-phenoxy-1,3,5-triazin-2-yl)amino]phenyl}-methanol] |  | −** and (41) (p-chloro): − | 
13 | 52 to 54 °C | OCc1cccc(Nc2nc(Oc3ccccc3)nc(Oc3ccccc3Cl)n2)c1 [(43), {3-[(4-(2-chlorophenoxy)-6-phenoxy-1,3,5-triazin-2-yl)amino]phenyl}-methanol] |  | −** and (43) (o-chloro): − | 
14 | 47 to 50 °C | CC(C)(C)c1ccc(Oc2nc(Nc3cccc(CO)c3)nc(Oc3ccccc3)n2)cc1 [(44), {3-[(4-(4-t-butylphenoxy)-6-phenoxy-1,3,5-triazin-2-yl)amino]phenyl}-methanol] | ≥ 2 |  | 
15 | 169 to 173 °C | COc1ccc(Nc2nc(Cl)nc(NCCO)n2)cc1 [Compound (1), 2-[4-chloro-6-(4-methoxyphenylamino)-1,3,5-triazin-2-ylamino]ethanol] |  |  | Evaluation (luminescence in relation to the blank) [1]: +*
16 |  | O=C(O)c1cccc(Nc2nc(Oc3ccccc3)nc(Oc3ccccc3)n2)c1 [DTAB, 3-[(4.6-diphenoxy-1,3,5-triazin-2-yl)amino]benzoic acid, reference compound] |  | −* −** | ANF expression level / efficiency, stated in words ([2]; ANF test, P19 cells (DTAB and summary statements also cover C2C12)): substantially no changes in the ANF expression level were found, even a slight decrease; influence on embryo development (zebrafish embryos): substantial influence on the formation of the anterior-posterior (A-P) axis and organ development in embryos; Evaluation (luminescence in relation to the blank) [1]: −* −**
